Measured values as given in the supplement of paper PMC10307832.

Assays:
Assay in all cases: relative viability (nuclei count vs DMSO), 5 days (fraction); higher = more cells survive
Luminespib = compound: CCNC(=O)c1noc(-c2cc(C(C)C)c(O)cc2O)c1-c1ccc(CN2CCOCC2)cc1 [Luminespib]
In short: (§1)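 Lung cancer cell lines received five library-drug doses (not always all listed) spaced by √10, pinned on vehicle-anchored 1536-well plates after an overnight stay at 37 °C. Five days later, with no medium change, nuclei were Hoechst-stained, imaged at 4× and counted with MetaXpress. Viability is treated-well nuclei relative to vehicle-well nuclei, as a median across plates. Passing plates had control CV below 25% and at least one doubling.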

Nilotinib = compound: Cc1cn(-c2cc(NC(=O)c3ccc(C)c(Nc4nccc(-c5cccnc5)n4)c3)cc(C(F)(F)F)c2)cn1 [Nilotinib]
In short: as §1

Saracatinib = compound: CN1CCN(CCOc2cc(OC3CCOCC3)c3c(Nc4c(Cl)ccc5c4OCO5)ncnc3c2)CC1 [Saracatinib]
In short: as §1

MIM1 = compound: CC1=CSC(=NC2CCCCC2)N1/N=C/C3=C(C(=C(C=C3)O)O)O [MIM1]
In short: as §1

Lenalidomide = compound: Nc1cccc2c1CN(C1CCC(=O)NC1=O)C2=O [Lenalidomide]
In short: as §1

| Cell Line | relative viability (Luminespib; 0.002 µM) | relative viability (Luminespib; 0.006325 µM) | relative viability (Luminespib; 0.01 µM, anchor plate) | relative viability (Luminespib; 0.02 µM) | relative viability (Luminespib; 0.06325 µM) | relative viability (Luminespib; 0.2 µM) | relative viability (Nilotinib; 0.003162 µM) | relative viability (Nilotinib; 0.01 µM) | relative viability (Nilotinib; 0.03162 µM) | relative viability (Nilotinib; 0.1 µM) | relative viability (Saracatinib; 0.02 µM) | relative viability (Saracatinib; 0.2 µM) | relative viability (Saracatinib; 0.6325 µM) | relative viability (Saracatinib; 2 µM) | relative viability (MIM1; 0.2 µM) | relative viability (MIM1; 0.6325 µM) | relative viability (MIM1; 2 µM) | relative viability (MIM1; 6.325 µM) | relative viability (MIM1; 20 µM) | relative viability (Lenalidomide; 0.253 µM) | relative viability (Lenalidomide; 0.8 µM) | relative viability (Lenalidomide; 2.53 µM) | relative viability (Lenalidomide; 8 µM) | relative viability (Nilotinib; 0.001 µM) |
| --- | --- | --- | --- | --- | --- | --- | --- | --- | --- | --- | --- | --- | --- | --- | --- | --- | --- | --- | --- | --- | --- | --- | --- | --- |
| 201T | 0.973 | 0.896 | 1.06 | 0.88 | 0.969 | 0.295 | 1.11 | 0.979 | 1.02 | 0.47 | 0.99 | 0.826 | 0.923 | 0.722 | 1 | 1 | 0.987 | 0.555 | 0.483 | 0.985 | 0.835 | 1.01 | 0.96 |  |
| A549 | 1.04 | 0.923 |  | 0.432 | 0.085 | 0.0435 | 1.21 | 1.1 | 0.739 | 0.665 | 1.04 | 0.81 | 1.09 | 0.898 | 0.967 | 0.933 | 0.946 | 0.782 | 0.333 | 0.986 | 0.97 | 1.13 | 0.954 | 0.948 |
| A-427 | 1.06 | 0.906 | 1.03 | 0.793 | 0.395 | 0.244 | 1.06 | 1.08 | 0.871 | 0.182 | 1.03 | 0.904 | 0.935 | 0.924 | 1.05 | 0.746 | 0.973 | 0.783 | 0.218 | 1.04 | 0.979 | 1.15 | 0.918 | 0.955 |
| ABC-1 | 0.993 | 0.865 | 0.718 | 0.63 | 0.239 | 0.2 | 0.907 | 1.05 | 0.78 | 0.322 | 0.942 | 0.811 | 1 | 0.899 | 0.902 | 1.15 | 0.9 | 0.485 | 0.264 | 1.01 | 0.774 | 0.993 | 0.825 | 1 |
| BEN | 0.944 | 0.925 | 0.383 | 0.442 | 0.656 | 0.355 | 1.03 | 0.929 | 0.926 | 0.786 | 1.11 | 0.755 | 1.05 | 0.759 | 1.02 | 0.914 | 1.01 | 0.853 | 0.323 | 1.09 | 0.892 | 1.12 | 0.731 | 0.876 |
| CAL-12T | 1.03 | 0.933 | 0.47 | 0.591 | 0.136 | 0.13 | 0.91 |  | 0.688 | 0.654 | 1.06 | 0.996 | 1.14 | 0.903 | 1.05 | 0.819 | 0.92 | 0.708 | 0.434 | 0.979 | 1.04 | 1.27 | 1.16 | 0.928 |
| COR-L23 | 1.14 | 0.913 | 0.672 | 0.925 | 0.091 | 0.0907 | 1.34 | 1.2 | 0.704 | 0.768 | 1.05 | 0.856 | 0.905 | 0.975 | 0.995 | 1.11 | 1.01 | 0.77 | 0.424 | 1.01 | 0.957 | 1.2 | 1.22 | 0.877 |
| COR-L 105 | 0.873 | 0.913 | 0.822 | 0.627 | 0.232 | 0.24 | 0.915 | 1.13 | 0.87 | 0.845 | 1.08 | 0.868 | 0.769 | 0.542 | 1 | 0.878 | 0.986 | 0.769 | 0.412 | 0.976 | 0.971 | 1.05 | 1.01 | 1.11 |
| Calu-6 | 1.03 | 0.892 |  | 0.899 | 0.136 | 0.122 | 1.07 | 1.09 | 0.781 | 0.891 | 0.923 | 0.902 | 0.926 | 0.755 | 1.03 | 0.928 | 0.967 | 0.444 | 0.242 | 0.973 | 1.02 | 1.09 | 1.02 | 0.937 |
| ChaGo-K-1 | 1.07 | 1.01 | 0.666 | 0.978 | 0.816 | 0.335 | 1.16 | 1.11 | 0.789 | 0.532 | 0.992 | 0.807 | 1.05 | 0.927 | 0.995 | 0.896 | 0.971 | 0.738 | 0.235 | 0.946 | 1.05 | 1.04 | 1.01 | 0.926 |
| EBC-1 | 0.984 | 0.877 |  | 0.326 | 0.128 | 0.142 | 1.16 | 1.1 | 0.679 | 0.725 | 1.1 | 0.933 | 1.11 | 1.08 | 1.02 | 0.995 | 0.981 | 0.682 | 0.471 | 1.03 | 1.04 | 1.1 | 0.955 | 0.818 |
| EKVX | 0.956 | 0.724 | 0.851 | 0.655 | 0.878 | 0.356 | 1.16 | 1.15 | 0.854 | 0.659 | 1.03 | 0.738 | 0.966 | 0.631 | 0.94 | 1 | 0.881 | 0.604 | 0.511 | 0.988 | 0.803 | 1.05 | 0.846 | 0.823 |
| EMC-BAC-2 | 1 | 0.553 | 1.18 | 0.648 | 0.665 | 0.302 | 0.915 | 0.956 | 0.857 | 0.731 | 0.952 | 0.943 | 0.856 | 0.763 | 1.03 | 0.727 | 0.968 | 0.816 | 0.296 | 1.15 | 0.863 | 1 | 0.493 | 0.951 |
| EPLC-272H | 0.82 | 0.887 | 0.301 | 0.557 | 0.496 | 0.123 | 0.94 | 0.92 | 0.676 | 0.37 | 0.974 | 0.881 | 1.09 | 0.786 | 0.969 | 0.888 | 0.934 | 0.593 | 0.162 | 1.11 | 0.741 | 1.07 | 0.754 | 0.894 |
